The values that follow come from ChEMBL document CHEMBL5370528, “Synthesis-accessibility-oriented design of c-Jun N-terminal kinase 1 inhibitor” (Eur J Med Chem, 2023).

The subject of series [1] is Mus musculus. Briefly: Anti-fibrotic activity in bleomycin-induced C57BL/6 mouse model of pulmonary fibrosis assessed as reduction in mortality rate at 25 mg/kg, po administered twice a day for 3 weeks (reference value: 43%). It counts as functional. On the set-up: scale not given: the % may be the effect or the level left.
Series [2] concerns the target T1, Mitogen-activated protein kinase 8 (Homo sapiens, UniProt P45983). Briefly: Inhibition of N-terminal GST-tagged recombinant full length human JNK1 expressed in baculovirus infected Sf9 insect cells using IPTTPITTTYFFFKKK as substrate at 1 uM incubated for 60 mins in the presence of ATP by ADP-Glo reagent based luminescence assay relative to control. (In general: In ADP-Glo the light output rises with the ADP produced.)

The target of series [3] is T2, Mitogen-activated protein kinase 10 (Homo sapiens, UniProt P53779). Briefly: Inhibition of N-terminal GST-tagged recombinant full length human JNK3 expressed in baculovirus infected Sf9 cells using IPTTPITTTYFFFKKK as substrate at 1 uM incubated for 60 mins in the presence of ATP by ADP-Glo reagent based luminescence assay relative to control.
T2 sequence (P53779 whole entry): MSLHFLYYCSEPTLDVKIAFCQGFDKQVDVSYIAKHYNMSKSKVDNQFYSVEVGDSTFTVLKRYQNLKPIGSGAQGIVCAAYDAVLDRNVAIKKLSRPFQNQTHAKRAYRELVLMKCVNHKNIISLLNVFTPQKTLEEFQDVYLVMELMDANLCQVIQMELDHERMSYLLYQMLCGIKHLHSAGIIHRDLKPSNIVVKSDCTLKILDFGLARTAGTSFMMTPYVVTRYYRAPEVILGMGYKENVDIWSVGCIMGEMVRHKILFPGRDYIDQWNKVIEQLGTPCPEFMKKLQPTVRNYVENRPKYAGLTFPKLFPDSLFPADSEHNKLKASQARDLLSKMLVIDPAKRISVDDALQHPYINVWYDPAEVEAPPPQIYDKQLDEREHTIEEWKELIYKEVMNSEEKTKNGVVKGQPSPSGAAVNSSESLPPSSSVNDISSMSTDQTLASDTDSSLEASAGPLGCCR
The target in series [4] is T2, Mitogen-activated protein kinase 10. Briefly: Inhibition of N-terminal GST-tagged recombinant full length human JNK3 expressed in baculovirus infected Sf9 cells using IPTTPITTTYFFFKKK as substrate at 0.1 uM incubated for 60 mins in the presence of ATP by ADP-Glo reagent based luminescence assay relative to control.
The target of series [5] is T1, Mitogen-activated protein kinase 8. Briefly: Inhibition of N-terminal GST-tagged recombinant full length human JNK1 expressed in baculovirus infected Sf9 insect cells using IPTTPITTTYFFFKKK as substrate incubated for 60 mins in the presence of ATP by ADP-Glo reagent based luminescence assay.
Series [6] addresses Mitogen-activated protein kinase 9 (Homo sapiens, UniProt P45984). Briefly: Inhibition of N-terminal GST-tagged recombinant full length human JNK2 expressed in baculovirus infected Sf9 cells using IPTTPITTTYFFFKKK as substrate incubated for 60 mins in the presence of ATP by ADP-Glo reagent based luminescence assay.
The species named for a further series is Homo sapiens. Briefly: Selectivity ratio of IC50 for inhibition of N-terminal GST-tagged recombinant full length human JNK2 expressed in baculovirus infected Sf9 cells to IC50 for inhibition of N-terminal GST-tagged recombinant full length human JNK1 expressed in baculovirus infected Sf9 insect cells.
Series [7] has as its target Mitogen-activated protein kinase 11 (Homo sapiens) (UniProt Q15759). Briefly: Inhibition of p38beta (unknown origin) at 1 uM preincubated for 10 mins followed by substrate addition and measured after 60 mins in the presence of ATP by ADP-Glo reagent based luminescence assay relative to control. To be noted: time 70.0 min.
The target of series [8] is Mitogen-activated protein kinase 7 (Homo sapiens) (UniProt Q13164). Briefly: Inhibition of ERK5 (unknown origin) at 1 uM preincubated for 10 mins followed by substrate addition and measured after 60 mins in the presence of ATP by ADP-Glo reagent based luminescence assay relative to control. The following applies: time 70.0 min.
Chain of Mitogen-activated protein kinase 7 (Homo sapiens) (Q13164 2-816 limits assumed): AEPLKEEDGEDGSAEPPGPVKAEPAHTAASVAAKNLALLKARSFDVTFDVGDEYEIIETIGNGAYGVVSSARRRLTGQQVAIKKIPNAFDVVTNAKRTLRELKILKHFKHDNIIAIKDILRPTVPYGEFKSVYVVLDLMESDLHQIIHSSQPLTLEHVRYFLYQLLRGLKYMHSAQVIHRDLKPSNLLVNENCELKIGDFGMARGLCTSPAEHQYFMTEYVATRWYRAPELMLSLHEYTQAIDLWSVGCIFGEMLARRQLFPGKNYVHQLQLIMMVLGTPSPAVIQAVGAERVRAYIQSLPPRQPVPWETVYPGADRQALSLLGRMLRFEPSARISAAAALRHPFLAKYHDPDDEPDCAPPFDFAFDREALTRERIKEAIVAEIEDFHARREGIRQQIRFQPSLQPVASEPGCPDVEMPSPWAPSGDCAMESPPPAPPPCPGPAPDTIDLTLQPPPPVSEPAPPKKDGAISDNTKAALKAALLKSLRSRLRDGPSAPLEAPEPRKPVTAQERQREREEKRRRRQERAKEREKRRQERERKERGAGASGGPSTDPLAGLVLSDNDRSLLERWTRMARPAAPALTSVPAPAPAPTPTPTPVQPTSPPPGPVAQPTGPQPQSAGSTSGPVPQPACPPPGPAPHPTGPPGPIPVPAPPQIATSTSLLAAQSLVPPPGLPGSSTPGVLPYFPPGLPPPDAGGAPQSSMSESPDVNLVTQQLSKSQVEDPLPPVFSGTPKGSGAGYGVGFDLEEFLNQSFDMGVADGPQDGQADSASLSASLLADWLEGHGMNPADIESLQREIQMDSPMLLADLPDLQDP
The target in series [9] is T3, Dual specificity mitogen-activated protein kinase kinase 7 (Homo sapiens) (UniProt O14733).
T3 sequence (whole entry): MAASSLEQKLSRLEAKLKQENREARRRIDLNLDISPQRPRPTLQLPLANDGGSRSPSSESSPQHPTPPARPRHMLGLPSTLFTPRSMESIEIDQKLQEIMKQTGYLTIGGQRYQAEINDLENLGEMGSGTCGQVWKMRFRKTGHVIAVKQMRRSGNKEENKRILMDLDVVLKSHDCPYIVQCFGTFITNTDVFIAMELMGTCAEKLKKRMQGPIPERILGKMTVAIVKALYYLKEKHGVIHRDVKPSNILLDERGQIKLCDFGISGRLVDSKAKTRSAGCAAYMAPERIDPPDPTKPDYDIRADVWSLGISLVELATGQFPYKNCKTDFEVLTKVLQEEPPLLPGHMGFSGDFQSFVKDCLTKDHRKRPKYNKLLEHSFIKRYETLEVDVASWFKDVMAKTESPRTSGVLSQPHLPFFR
Briefly: Inhibition of MAP2K7 (unknown origin) at 1 uM preincubated for 10 mins followed by substrate addition and measured after 60 mins in the presence of ATP by ADP-Glo reagent based luminescence assay relative to control. To be noted: time 70.0 min.

The target of series [10] is CDK2/Cyclin A2 (Homo sapiens) (UniProt P24941+P20248). Briefly: Inhibition of CDK2/Cyclin A2 (unknown origin) at 1 uM preincubated for 10 mins followed by substrate addition and measured after 60 mins in the presence of ATP by ADP-Glo reagent based luminescence assay relative to control. The series is classed as protein-complex assay. To be noted: time 70.0 min.
For series [11], the target named is Cyclin-dependent kinase 2/cyclin E1 (Homo sapiens) (UniProt P24864+P24941). Briefly: Inhibition of CDK2/Cyclin E1 (unknown origin) at 1 uM preincubated for 10 mins followed by substrate addition and measured after 60 mins in the presence of ATP by ADP-Glo reagent based luminescence assay relative to control. It counts as protein-complex assay. To be noted: time 70.0 min.

Series [12] addresses CDK6/cyclin D1 (Homo sapiens) (UniProt P24385+Q00534). Briefly: Inhibition of CDK6/Cyclin D1 (unknown origin) at 1 uM preincubated for 10 mins followed by substrate addition and measured after 60 mins in the presence of ATP by ADP-Glo reagent based luminescence assay. The series is classed as protein-complex assay. The following applies: time 70.0 min.
Series [13] deals with c-Jun N-terminal kinase, JNK (Homo sapiens) (UniProt P45983+P53779+P45984). Briefly: Inhibition of JNK in human BEAS-2B cells assessed as inhibition of anisomycin-activated c-Jun phosphorylation preincubated for 1 hrs followed by anisomycin activation for 1 hrs by Western blot analysis. The series is classed as cell-based. To be noted: dose 2-50 µM, time 2.0 hrs. (In general: A western blot detects proteins with antibodies after separation by electrophoresis.)

A short description of series [14]: Clearance in Sprague-Dawley rat at 5 mg/kg, iv by HPLC-UV analysis. It counts as ADME, organism-based. The following applies: in vivo.
Series [15] in a line: MRT(0 to infinity) in Sprague-Dawley rat at 5 mg/kg, iv by HPLC-UV analysis. It counts as ADME, organism-based. The following applies: in vivo.
A short description of series [16]: Cmax in Sprague-Dawley rat at 75 mg/kg, po by HPLC-UV analysis. The arrangement: dose 75 mg/kg, route po. To be noted: in vivo. The series is classed as ADME, organism-based.
Series [17] is described as follows: Apparent volume of distribution in Sprague-Dawley rat at 75 mg/kg, po by HPLC-UV analysis. To be noted: in vivo. It counts as ADME, organism-based.
Series [18] is described as follows: MRT (0 to infinity) in Sprague-Dawley rat at 75 mg/kg, po by HPLC-UV analysis. The series is classed as ADME, organism-based. The following applies: in vivo.
The nature of series [19]: Oral bioavailability in Sprague-Dawley rat at 75 mg/kg by HPLC-UV analysis. The following applies: in vivo. It counts as ADME, organism-based.
Series [20] has as its system Mus musculus. Briefly: Anti-fibrotic activity in bleomycin-induced C57BL/6 mouse model of pulmonary fibrosis assessed as enhancement of lung respiratory function at 25 to 75 mg/kg, po administered twice a day for 3 weeks by spirometry analysis. The following applies: dose 25-75 mg/kg. The series is classed as functional, organism-based.
Series [21] relates to Mus musculus. Briefly: Anti-fibrotic activity in bleomycin-induced C57BL/6 mouse model of pulmonary fibrosis assessed as increase in respiratory function by measuring tidal volume at 25 to 75 mg/kg, po administered twice a day for 3 weeks by spirometry analysis. The series is classed as functional, organism-based. The following applies: dose 25-75 mg/kg.
The subject of series [22] is Mus musculus. Briefly: Anti-fibrotic activity in bleomycin-induced C57BL/6 mouse model of pulmonary fibrosis assessed as reduction in alveolar space collapse at 25 to 75 mg/kg, po administered twice a day for 3 weeks by Masson's trichome staining based analysis. The series is classed as functional, organism-based. To be noted: dose 25-75 mg/kg.
Series [23] has as its system Mus musculus. Briefly: Anti-fibrotic activity in bleomycin-induced C57BL/6 mouse model of pulmonary fibrosis assessed as alleviation of body weight loss at 25 to 75 mg/kg, po administered twice a day for 3 weeks. To be noted: dose 25-75 mg/kg. It counts as functional, organism-based.

Calls of active or inactive are those of the source. The rule behind the calls is not given here.

T1 sequence (P45983 whole entry): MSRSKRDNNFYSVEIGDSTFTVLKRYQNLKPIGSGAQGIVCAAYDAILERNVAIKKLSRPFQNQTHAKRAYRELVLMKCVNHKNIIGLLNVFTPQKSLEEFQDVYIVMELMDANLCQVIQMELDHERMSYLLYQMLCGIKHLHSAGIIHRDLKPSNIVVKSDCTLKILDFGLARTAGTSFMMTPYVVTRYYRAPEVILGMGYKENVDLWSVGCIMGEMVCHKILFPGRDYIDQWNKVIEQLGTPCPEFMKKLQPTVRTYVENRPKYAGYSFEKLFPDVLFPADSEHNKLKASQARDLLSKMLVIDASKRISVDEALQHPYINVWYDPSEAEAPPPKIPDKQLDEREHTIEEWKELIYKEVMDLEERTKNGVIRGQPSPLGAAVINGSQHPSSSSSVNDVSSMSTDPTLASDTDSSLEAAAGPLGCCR
Chain of Mitogen-activated protein kinase 11 (Homo sapiens) (Q15759 whole entry): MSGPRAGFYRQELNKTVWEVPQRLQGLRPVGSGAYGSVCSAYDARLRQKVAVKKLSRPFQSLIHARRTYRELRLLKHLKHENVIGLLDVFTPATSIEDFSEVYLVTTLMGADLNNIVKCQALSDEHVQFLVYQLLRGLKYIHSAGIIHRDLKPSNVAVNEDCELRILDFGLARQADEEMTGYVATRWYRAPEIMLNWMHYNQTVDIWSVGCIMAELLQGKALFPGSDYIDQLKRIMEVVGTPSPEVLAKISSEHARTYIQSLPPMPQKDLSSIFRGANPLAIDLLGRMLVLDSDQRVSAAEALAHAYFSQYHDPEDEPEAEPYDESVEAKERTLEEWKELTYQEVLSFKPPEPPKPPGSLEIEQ
Chain of Mitogen-activated protein kinase 9 (P45984 whole entry): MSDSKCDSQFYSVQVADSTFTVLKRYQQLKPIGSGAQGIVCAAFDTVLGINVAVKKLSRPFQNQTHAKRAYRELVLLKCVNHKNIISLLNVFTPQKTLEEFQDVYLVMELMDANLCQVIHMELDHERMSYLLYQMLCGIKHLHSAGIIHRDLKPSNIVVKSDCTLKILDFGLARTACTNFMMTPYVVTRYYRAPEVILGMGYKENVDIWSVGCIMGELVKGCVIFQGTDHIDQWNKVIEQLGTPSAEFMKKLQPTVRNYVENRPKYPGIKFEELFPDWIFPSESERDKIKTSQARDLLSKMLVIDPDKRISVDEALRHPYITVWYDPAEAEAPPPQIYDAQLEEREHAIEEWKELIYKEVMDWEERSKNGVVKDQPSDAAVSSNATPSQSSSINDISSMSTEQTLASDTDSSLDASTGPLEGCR

In general, inhibition refers to the drop in the measured response relative to a control, in per cent. A word on the IC50: it is the concentration that inhibits the measured activity by half. What is called clearance is a measure of how efficiently the substance is removed, as volume per time. The MRT inf is the average time that molecules of a dose stay in the body. For orientation: Cmax means the maximum level reached in the sampled fluid or tissue. Broadly, the bioavailability is dose-corrected exposure relative to a reference, in per cent. `CC(C)(C)CNc1ncc(Br)c(Nc2ccccc2C(N)=O)n1`: the Activity in the series on Mus musculus [1] was determined as 14%. Also, the inhibition in [2] was determined as 99%; in series [3] it was 99.6%; in [4], 78.5%; in series [7], 9.6%; in series [8], 13.5%; in [9], 8.7%. For the same compound, the inhibition in series [10] was 36.1%; in [11], 60.3%; in series [12] it was 17%; in series [13], “Dose-Dependent Effect”. The IC50 in series [5] was determined as 33.5 nM; in series [6], 113 nM. The Ratio IC50 in the series filed under Homo sapiens came to 3.36. In addition, the clearance in series [14] came to 131 mL/min/kg. In addition, the MRT inf in series [15] was found to be 2.85 h; in series [18] it was 5.45 h. The same compound gave a Cmax in [16] of 488 ng/mL. Further, the Vz in series [17] turned out to be 230.54 L/kg. In series [19], the bioavailability was determined as 15.3%. Also, the outcome with Mus musculus [20], in the series on Mus musculus [21], with Mus musculus [22] and with Mus musculus [23] was Active.
